Source: EP4059493A1, “A CHLOROPHYLLIN CONTAINING PHARMACEUTICAL COMPOSITION FOR PREVENTION OF PATHOGENESIS OF CORONAVIRUS DISEASE” (priority 2021, dated 2022)
Read-outs that look alike come from different tables or passages of the source.

Legend:
SARS-CoV-2 virus = assay type: cell-based
mice = assay: Acute oral toxicity (oral gavage), mice; assay type: in vivo
Protocol: (§1) Different doses of Chlorophyllin (100 to 5000 mg/kg body weight) were given to mice and rats (6 males, 6 females) by oral gavage in an accredited facility for animal toxicity testing. […] There were no signs of toxicity in rodents treated with indicated doses of Chlorophyllin.

rats [1] = assay: Acute oral toxicity (oral gavage), rats; assay type: in vivo
Protocol: as §1

rats [2] = assay: 28 day repeat dose toxicity study; assay type: in vivo; conditions: daily dose of 1000 mg per kg body weight for 28 consecutive days
Protocol: as §1

healthy human subjects = assay: Phase I clinical study: tolerability in healthy human subjects; assay type: in vivo; conditions: 750 mg given twice a day, all five human subjects
Protocol: (§2) An open label Phase I clinical study was conducted to assess pharmacodynamics of sodium copper Chlorophyllin in healthy adult, human male subjects under fasting conditions. The study was approved by Drug Controller General of India (DCGI). The trial is registered with the Clinical Trial Registry of India (CTRI/2018/09/015576). Five healthy male subjects were allowed to fast overnight and one Chlorophyllin tablet (750 mg) was administered to each subject by oral route along with ∼200 ml water. The subjects were given breakfast, lunch and snacks and a second tablet of Chlorophyllin (750 mg) was administered to each subject by oral route along with 200 ml water after 12 hr.

neutrophils = assay: Phase I clinical study: absolute neutrophil count (ANC) in blood; assay type: in vivo, human
Protocol: as §2
(§3) Chlorophyllin tablets comprising Chlorophyllin or salts thereof (750 mg), were administered to healthy human subjects after overnight fasting. Blood samples were collected through an indwelling intravenous cannula (Venflon) placed in the fore arm vein of the subjects at different time intervals. Absolute neutrophil count (ANC) and white blood cell (WBC) counts were measured. Serum was separated and chemokine concentration in the serum was measured using cytometric bead array.

white blood cell = assay: Phase I clinical study: white blood cell (WBC) count in blood; assay type: in vivo, human; conditions: 8-16hr after first dose (750 mg), fasting
Protocol: as §2, §3

lymphocytes = assay: Phase I clinical study: lymphocyte counts in blood; assay type: in vivo, human; conditions: Fig 4A
Protocol: as §2, §3

[3] = tested on: CD34+ hematopoietic stem and progenitor cells; assay: Phase I clinical study: CD34+ hematopoietic stem and progenitor cells in blood by flow cytometry; assay type: in vivo, human; conditions: 750 mg tablets, fasting (Fig 2)
Protocol: as §2
Blood sample at each time point was also collected in K2EDTA vacutainer tube and erythrocytes were lysed using RBC lysis buffer. Then cells were stained with fixable far red live dead reagent and PE-CD34 and FITC-CD45 antibodies at 4°C and fixed with 4% formaldehyde. The frequency of CD34+ hematopoietic stem and progenitor cells in the blood was determined by flow cytometry and FlowJo software.

MCP-1 = assay: Phase I clinical study: serum chemokine by cytometric bead array, MCP-1; assay type: in vivo, human; conditions: 24hr after first dose
Protocol: as §2, §3

MIP-1α = assay: Phase I clinical study: serum chemokine by cytometric bead array, MIP-1α; assay type: in vivo, human; conditions: 72hr after first dose
Protocol: as §2, §3

MIP-1β = assay: Phase I clinical study: serum chemokine by cytometric bead array, MIP-1β; assay type: in vivo, human; conditions: 24hr after first dose
Protocol: as §2, §3

Vero CCL-81 cells = conditions: 5µM Concentration (Fig 4B right panel)

Sodium copper Chlorophyllin
effect on SARS-CoV-2 virus multiplication (SARS-CoV-2 virus; 0.1 micro molar concentration (Fig 4 right panel)): did not inhibit
inhibition of SARS-CoV-2 multiplication (SARS-CoV-2 virus; 5 micro-molar concentration, 72 hr (three days), Vero CCL-81 cells): ~87%
EC50 (SARS-CoV-2 virus; 72 hr treatment, read-out: concentration of CHL required to inhibit the growth of SARS-CoV-2 virus by 50% (EC50)): < 1000 nM
concentration of chlorophyllin required for ∼90% inhibition of multiplication of SARS-CoV-2 virus (SARS-CoV-2 virus; Fig 4): about 5 micro molar
EC50 (SARS-CoV-2 virus; Vero CCL-81 cells, 72 hr, read-out: concentration of Chlorophyllin required for inhibition of 50% viral multiplication(EC50)): < 1000 nM
effect on multiplication of SARS-CoV-2 virus (SARS-CoV-2 virus; less than 1 micro-molar concentration): did not significantly decrease
tolerability of acute oral dose (mice; mice, up to 5000 mg/kg body weight, oral gavage): well tolerated
LD50 dose (mice; rodents (mice), proposed from absence of toxicity, morbidity or mortality): higher than 5000 mg/kg body weight
tolerability of acute oral dose (rats [1]; rats, up to 5000 mg/kg body weight, oral gavage): well tolerated
LD50 dose (rats [1]; rodents (rats), proposed from absence of toxicity, morbidity or mortality): higher than 5000 mg/kg body weight
tolerability in repeat dose toxicity study (rats [2]): well tolerated
tolerability in human subjects (healthy human subjects): well tolerated
time after first dose at which ANC increase was observed (neutrophils; 750 mg, 4hr before second dose): ≤ 8 h
increase in ANC relative to pre-dose value (neutrophils; 8-16 hr after first dose (750 mg), fasting, five subjects): 12.4-32.5%
increase in WBC count relative to pre-dose value (white blood cell): 12.8-26.5%
increase in the lymphocyte counts in human blood as compared to pre-dose value (lymphocytes): up to 30%
relative decrease in percentage of CD34+ HPSCs in human blood as compared to pre-dose value [3]: 50-85%
relative decrease in MCP-1 in human blood as compared to pre-dose value (MCP-1): 13-37%
relative decrease in MIP-1α in human blood as compared to pre-dose value (MIP-1α): 12-21%
relative decrease in MIP-1β in human blood as compared to pre-dose value (MIP-1β): 11-55%
cytotoxicity in the target cells (Vero CCL-81 cells): without causing cytotoxicity
